For one compound, EC50 results are on record in patent US20090105263A1, “HETEROBICYCLIC COMPOUNDS AS GLUCOKINASE ACTIVATORS” (priority 2005, published 2009).

pEC50: −log10 of the molar value.

The target of this assay is T1, recombinant human pancreatic GLK (Homo sapiens, UniProt P35557).
T1 sequence (P35557 1-465): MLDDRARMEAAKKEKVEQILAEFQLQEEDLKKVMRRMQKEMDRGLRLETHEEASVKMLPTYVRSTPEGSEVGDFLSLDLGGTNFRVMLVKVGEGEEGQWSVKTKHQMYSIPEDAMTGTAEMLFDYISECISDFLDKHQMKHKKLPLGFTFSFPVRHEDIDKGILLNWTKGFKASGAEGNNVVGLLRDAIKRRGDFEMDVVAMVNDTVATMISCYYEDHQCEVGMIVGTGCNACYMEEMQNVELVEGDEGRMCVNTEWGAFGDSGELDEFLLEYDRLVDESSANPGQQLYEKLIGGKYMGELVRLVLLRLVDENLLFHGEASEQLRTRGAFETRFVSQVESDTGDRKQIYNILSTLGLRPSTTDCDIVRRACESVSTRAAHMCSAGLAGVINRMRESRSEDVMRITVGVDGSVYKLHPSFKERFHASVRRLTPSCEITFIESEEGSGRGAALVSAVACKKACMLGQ
As to the kind of experiment: biochemical.

As to `COC[C@H](C)Oc1cc(OCc2ccccc2)cc(-c2cc3cccnc3[nH]2)c1` [Example 1, 2-[3-(Benzyloxy)-5-[(1S)-2-methoxy-1-methylethoxy]phenyl]-1H-pyrrolo[2,3-b]pyridine], the pEC50 is 6.92.
